pEC50: −log10 of the molar value. Counter-ions that a name gives are not always drawn.
System: eNOS promoter
Experiment: Activation of eNOS transcription (eNOS promoter firefly luciferase reporter gene assay)
Assay type: cell-based
Details: human endothelial cell line stably transfected with eNOS promoter-luciferase construct, 18 h incubation; read-out: EC50 values of transcription induction ratios (TIR)
Description: Activation of eNOS transcription was measured as described in detail by Li et al., “Activation of protein kinase C alpha and/or epsilon enhances transcription of the human endothelial nitric oxide synthase gene”, Mol. Pharmacol. 53 (1998) 630. Briefly, a 3.5 kB long fragment 5′ of the starting codon of the eNOS gene was cloned, sequenced and cloned in firefly luciferase expression plasmids to monitor activation of the eNOS promoter by reporter gene activity. A human endothelial cell line stable transfected and expressing this promoter-reporter construct was used for compound testing. Cells were incubated for 18 h with the compounds.
All compounds were dissolved in sterile dimethyl sulfoxide (DMSO). A final concentration of 0.5% DMSO in complete medium was allowed. Induction of reporter gene expression in these cells was measured using a standard luciferase assay system (Promega, Cat. No. E150) according to the manufacturer's instructions. Luciferase induction in cells incubated with compounds were compared to those incubated with solvent alone. The ratio of both activities (transcription induction ratio, TIR) was plotted as a function of compound concentration. Typically, TIR values started at low concentrations at a ratio of 1, indicating no compound effect, and extended up to a maximum TIR value TIR(max) which indicates the increase of the eNOS transcription. EC50 values of transcription induction ratios as a function of compound concentration were determined graphically.

pEC50, > 6.30:
COC(=O)c1ccc2nc(-c3ccc(C(F)(F)F)cc3)cn2c1 [Example 15, 2-(4-Trifluoromethyl-phenyl)-imidazo[1,2-a]pyridine-6-carboxylic acid methyl ester]
CCOC(=O)ONC(=N)c1ccc2nc(-c3ccc(F)cc3)cn2c1 [Example 60, 2-(4-Fluoro-phenyl)-N-ethoxycarbonyloxy-imidazo[1,2-a]pyridine-6-carboxamidine]
COC(=O)c1ccc2nc(-c3ccc4c(c3)OCCO4)cn2c1 [Example 34, 2-(2,3-Dihydro-benzo[1,4]dioxin-6-yl)-imidazo[1,2-a]pyridine-6-carboxylic acid methyl ester]
COC(=O)c1ccc2nc(-c3ccc(F)cc3)cn2c1 [Example 1, 2-(4-Fluoro-phenyl)-imidazo[1,2-a]pyridine-6-carboxylic acid methyl ester]
COC(=O)c1ccc2nc(-c3cccc(C(F)(F)F)c3)cn2c1 [Example 33, 2-(3-Trifluoromethyl-phenyl)-imidazo[1,2-a]pyridine-6-carboxylic acid methyl ester]
N=C(NO)c1ccc2nc(-c3ccc(F)cc3)cn2c1 [Example 56, 2-(4-Fluoro-phenyl)-N-hydroxy-imidazo[1,2-a]pyridine-6-carboxamidine]
COC(=O)c1ccc2nc(-c3ccc(Br)cc3)c(C)n2c1 [Example 2, 2-(4-Bromo-phenyl)-3-methyl-imidazo[1,2-a]pyridine-6-carboxylic acid methyl ester]
COC(=O)c1ccc2nc3c(n2c1)Cc1ccccc1-3 [Example 42, 11H-Indeno[1′,2′:4,5]imidazo[1,2-a]pyridine-8-carboxylic acid methyl ester]
COC(=O)c1ccc2nc(-c3ccc(Br)cc3)cn2c1 [Example 12, 2-(4-Bromo-phenyl)-imidazo[1,2-a]pyridine-6-carboxylic acid methyl ester]
COC(=O)c1ccc2nc(-c3ccccc3Cl)cn2c1 [Example 20, 2-(2-Chloro-phenyl)-imidazo[1,2-a]pyridine-6-carboxylic acid methyl ester]
COC(=O)c1ccc2nc(-c3ccc(OC(F)(F)F)cc3)cn2c1 [Example 16, 2-(4-Trifluoromethoxy-phenyl)-imidazo[1,2-a]pyridine-6-carboxylic acid methyl ester]
COC(=O)c1ccc2nc(-c3ccc(-c4ccccc4)cc3)cn2c1 [Example 37, 2-Biphenyl-4-yl-imidazo[1,2-a]pyridine-6-carboxylic acid methyl ester]
COC(=O)c1ccc2nc(-c3ccc(Cl)cc3Cl)cn2c1 [Example 28, 2-(2,4-Dichloro-phenyl)-imidazo[1,2-a]pyridine-6-carboxylic acid methyl ester]
Fc1ccc(-c2cn3cc(Br)ccc3n2)cc1 [Example 61, 6-Bromo-2-(4-fluoro-phenyl)-imidazo[1,2-a]pyridine]
Cc1ccc(-c2cn3cc(C(=O)O)ccc3n2)cc1 [Example 46, 2-p-Tolyl-imidazo[1,2-a]pyridine-6-carboxylic acid]
COC(=O)c1ccc2nc(-c3ccc(C)cc3)cn2c1 [Example 7, 2-p-Tolyl-imidazo[1,2-a]pyridine-6-carboxylic acid methyl ester]
COC(=O)c1ccc2nc(-c3cc(F)cc(F)c3)cn2c1 [Example 32, 2-(3,5-Difluoro-phenyl)-imidazo[1,2-a]pyridine-6-carboxylic acid methyl ester]
Cc1ccc(-c2cn3cc(C#N)ccc3n2)cc1 [Example 54, 2-p-Tolyl-imidazo[1,2-a]pyridine-6-carbonitrile]
COC(=O)c1ccc2nc(-c3cccc(F)c3)cn2c1 [Example 14, 2-(3-Fluoro-phenyl)-imidazo[1,2-a]pyridine-6-carboxylic acid methyl ester]
COC(=O)c1ccc2nc(-c3cccc(Cl)c3)cn2c1 [Example 31, 2-(3-Chloro-phenyl)-imidazo[1,2-a]pyridine-6-carboxylic acid methyl ester]
CCN(CC)c1ccc(-c2cn3cc(C(=O)OC)ccc3n2)cc1 [Example 17, 2-(4-Diethylamino-phenyl)-imidazo[1,2-a]pyridine-6-carboxylic acid methyl ester]
COC(=O)c1ccc2nc(-c3ccccc3)cn2c1 [Example 13, 2-Phenyl-imidazo[1,2-a]pyridine-6-carboxylic acid methyl ester]
COC(=O)c1ccc2nc(-c3ccc(OC)cc3)cn2c1 [Example 10, 2-(4-Methoxy-phenyl)-imidazo[1,2-a]pyridine-6-carboxylic acid methyl ester]
COC(=O)c1ccc2nc(-c3ccc([N+](=O)[O-])cc3)cn2c1 [Example 38, 2-(4-Nitro-phenyl)-imidazo[1,2-a]pyridine-6-carboxylic acid methyl ester]
N#Cc1ccc2nc(-c3ccc(F)cc3)cn2c1 [Example 52, 2-(4-Fluoro-phenyl)-imidazo[1,2-a]pyridine-6-carbonitrile]
COC(=O)c1ccc2nc(-c3ccc(Br)c(S(N)(=O)=O)c3)cn2c1 [Example 21, 2-(4-Bromo-3-sulfamoyl-phenyl)-imidazo[1,2-a]pyridine-6-carboxylic acid methyl ester]
COC(=O)c1ccc2nc(-c3ccccc3)c(C)n2c1 [Example 3, 3-Methyl-2-phenyl-imidazo[1,2-a]pyridine-6-carboxylic acid methyl ester]
CCN(CC)c1ccc(-c2cn3cc(C#N)ccc3n2)cc1 [Example 53, 2-(4-Diethylamino-phenyl)-imidazo[1,2-a]pyridine-6-carbonitrile trifluoroacetic acid salt]
COC(=O)c1ccc2nc(-c3ccccc3F)cn2c1 [Example 5, 2-(2-Fluoro-phenyl)-imidazo[1,2-a]pyridine-6-carboxylic acid methyl ester]
Cc1ccc(-c2cn3cc(/C(N)=N/O)ccc3n2)cc1 [Example 57, N-Hydroxy-2-p-tolyl-imidazo[1,2-a]pyridine-6-carboxamidine]
COC(=O)c1ccc2nc(-c3cccc(Br)c3)cn2c1 [Example 24, 2-(3-Bromo-phenyl)-imidazo[1,2-a]pyridine-6-carboxylic acid methyl ester]
COC(=O)c1ccc2nc(-c3ccc(F)c(F)c3)cn2c1 [Example 19, 2-(3,4-Difluoro-phenyl)-imidazo[1,2-a]pyridine-6-carboxylic acid methyl ester]
COC(=O)c1ccc2nc(-c3cccc(C#N)c3)cn2c1 [Example 23, 2-(3-Cyano-phenyl)-imidazo[1,2-a]pyridine-6-carboxylic acid methyl ester]
COC(=O)c1ccc2nc(-c3ccc(N)cc3)cn2c1 [Example 44, 2-(4-Amino-phenyl)-imidazo[1,2-a]pyridine-6-carboxylic acid methyl ester]
COC(=O)c1ccc2nc(-c3cccc([N+](=O)[O-])c3)cn2c1 [Example 8, 2-(3-Nitro-phenyl)-imidazo[1,2-a]pyridine-6-carboxylic acid methyl ester]
COC(=O)c1ccc2nc(-c3ccc(C)cc3C)cn2c1 [Example 25, 2-(2,4-Dimethyl-phenyl)-imidazo[1,2-a]pyridine-6-carboxylic acid methyl ester]
Nc1ccc2nc(-c3ccc(F)cc3)cn2c1 [Example 66, 2-(4-Fluoro-phenyl)-imidazo[1,2-a]pyridin-6-ylamine]
O=CNc1ccc2nc(-c3ccc(F)cc3)cn2c1 [Example 67, N-[2-(4-Fluoro-phenyl)-imidazo[1,2-a]pyridin-6-yl]-formamide]

From US8399476B2, “Imidazo[1,2-a]pyridines and their use as pharmaceuticals” (Sanofi, priority 2007, dated 2013)
